The text below walks through data of PubChem BioAssay (NCI).

Experiment in all cases: DTP human tumour cell line panel, 48 h
Test [1] relates to M14 melanoma.
The subject of test [2] is SNB-19 CNS.
Test [3] has as its system SF-295 CNS.
In test [4] the test system is HT29 colon.
The test system of test [5] is LOX IMVI melanoma.
In test [6] the test system is UO-31 renal.
For test [7], the system named is UACC-62 melanoma.
Test [8] has as its system COLO 205 colon.
The test system of test [9] is SK-MEL-5 melanoma.
The subject of test [10] is MDA-MB-435.

Structures are written as SMILES. Several values for one entry are separate records, joined by “and”; a condition that tells them apart may be missing. Identical values can stand only once.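 Results reflect a 48-hour exposure of cells in 96-well plates to compound at five concentrations. The concentration for 50% growth inhibition is given as GI50. TGI: total growth inhibition.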

As usually defined, the TGI is the concentration giving total growth inhibition. The low end stands for more potent growth arrest, the high end for less potent growth arrest. The GI50 is the concentration at which growth is held to half of that of the control.

Take `CC(=O)Nc1ccc(C2=N/C(=C\c3ccc(Cl)cc3)C(=O)O2)cc1`: the TGI in test [1] is 56.2 µM; in test [2], over 100 µM; in test [3], over 100 µM; in test [4] it was over 100 µM; in test [5] it was 35.6 µM; in test [6] it was 73.9 µM. For the same compound, the TGI in [7], in [8] and in test [9] was over 100 µM each time.

`CC1=C(C(=O)Nc2ccc(C)cc2)C(c2cccc([N+](=O)[O-])c2)C(C(=O)Nc2ccc(C)cc2)=C(C)N1`: the TGI in test [1] was 49.2 µM; in test [2] it was over 100 µM; in [3], 82.3 µM; in test [4], 49.4 µM; in test [5], 32.3 µM; in test [6] it was over 100 µM. For the same compound, the TGI amounted to 30.4 µM in [7], 28.1 µM in test [8] and 44.3 µM in test [9].

Regarding `N#Cc1cccc(C2C(=O)c3ccc(C(=O)c4ccc5c(c4)C(=O)N(c4ccc(Oc6ccc(N7C(=O)c8ccc(C(=O)c9ccc%10c(c9)C(=O)N(c9cccc(C#N)c9)C%10=O)cc8C7=O)cc6)cc4)C5=O)cc3C2=O)c1` (stereo not given), the concentration for total growth inhibition (TGI) in [1], in test [2], in test [3], in [4], in test [6] and in [7] was over 100 µM throughout. For the same compound, the TGI in test [8] and in test [9] was over 100 µM throughout.

Consider `Cc1ccccc1-n1c(CCl)nc2ccc(Br)cc2c1=O`, for which the TGI is 22.8 µM in test [1]; 77.1 µM in test [2]; 58.4 µM in [3]; 16.7 µM in test [4]; 1.46 µM in [5]; 28.2 µM in [6]. Also, the results for the TGI in test [7], in [8] and in test [9] were 17.9 µM, 26.4 µM and 22.9 µM, respectively.

On to `Clc1ccccc1C1SCc2nc3ccccc3n21` (stereo not given), for which the TGI in [1] was 59.9 µM; in test [2], 40.6 µM; in [3] it was over 100 µM; in test [4], over 100 µM; in test [5] it was 81.8 µM; in [8], over 100 µM. In test [9], the TGI is 33.7 µM.

`CC#CC#C/C(=C/C=CC(=O)OC)SC`: the TGI in test [1], in test [3], in [4], in [5], in [10] and in test [7] was over 100 µM throughout. The TGI in test [8] and in test [9] was over 100 µM each time.

For the compound `Fc1ccc(N=C2C=CC(=Nc3ccc(F)cc3)c3ccccc32)cc1`, the TGI in [1], in [2], in test [3], in [4], in [5] and in [6] was over 100 µM each time. Further, the TGI in test [7], in [8] and in [9] was over 100 µM in each case.

For the compound `COC(=O)C1=CC(=O)[C@@H]2CCCC[C@H]12`, the TGI in test [1], in test [2], in [6], in [7] and in [8] was over 100 µM each time.

On to `O=C(Cc1nc2ccccc2o1)C(=O)Nc1ccc(Cl)cc1Cl`, for which the total growth inhibition concentration (TGI) in test [1], in test [2], in [3], in test [4], in test [6] and in test [7] was over 100 µM throughout. This compound also returned a TGI in [8] of over 100 µM.

On to `Cc1cc(Cl)cc2c1NC(=O)C2(O)C(C(=O)c1ccccc1)c1ccccc1` (stereo not given), for which the GI50 in test [1] was 90.9 µM and 22.6 µM; in [6] it was 67.6 µM and 27.3 µM; in test [8], > 100 µM and 15.2 µM. For the same compound, the TGI in [1] is > 100 µM and 55.5 µM; in [2], over 100 µM; in [3], over 100 µM; in test [4] it was over 100 µM; in [5], > 100 µM and 46.1 µM; in test [6], > 100 µM and 48.4 µM. Also, the TGI in test [7] is 33.3 µM; in test [8], > 100 µM and 30 µM; in test [9], 45.4 µM.

Turning to `CCc1ccccc1NC(=O)C(=O)C1C(=O)N(c2ccccc2)N=C1N` (stereo not given), the TGI in test [1], in test [2], in test [3], in test [4], in test [5] and in test [6] was over 100 µM throughout. For the same compound, the TGI in test [7] and in [9] was over 100 µM throughout.

Turning to `[CH3][Hg]/[N]=C(/N)NC#N`, the GI50 in test [1] was 10.6 µM; in [3], 18.5 µM; in test [4], 19.9 µM; in test [5] it was 3.29 µM; in [6], 14.7 µM; in [7] it was 11.4 µM. Moreover, the GI50 was 1.71 µM in test [8] and 8.9 µM in [9]. The TGI in test [1] amounted to 22.9 µM; in test [3], 54.5 µM; in test [4] it was 50.8 µM; in [5] it was 14.9 µM; in test [6], 28 µM; in test [7], 23.9 µM. The TGI stood at 3.09 µM in [8] and 21.1 µM in test [9].

Turning to `Cc1ccc(NC(=O)CC2SC(=Nc3ccc(Cl)cc3)NC2=O)cc1C` (stereo not given), the TGI in test [1] is 31.2 µM; in test [2], over 100 µM; in test [3] it was over 73.3 µM; in [4], 33.2 µM; in [5], 33.7 µM; in test [6] it was 32.6 µM. Also, the TGI was found to be 32.6 µM in [7], 32.4 µM in test [8] and 36.6 µM in test [9].

As to `CN1C2(c3ccccc3)C(C(=O)c3ccccc3)=C(C(=O)c3ccccc3)C1(c1ccccc1)c1c(-c3ccccc3)sc(-c3ccccc3)c12`, the TGI in test [1], in test [2], in test [3], in [4], in test [5] and in [6] was over 100 µM in each case. Further, the TGI in [7], in [8] and in test [9] was over 100 µM throughout.
